Assay results from patent US20080095834A1, “Mitochondriotropic Phospholipid Vesicles” (priority 2005, published 2008).

Test system: COLO205 colon cancer cells
Experiment: Apoptotic DNA laddering, DNA gel separation analysis
Type: cell-based
Settings: 18 hrs, ceramide 25 μM
Protocol: FIG. 8 represents a micrograph of DNA gel separation analysis of COLO205 cells incubated with C6 ceramide-loaded mitochondriotropic liposomes according to the invention for 18 hrs, followed by extraction of their DNA. The concentration of ceramide in all samples was 25 μM. Lane A—DNA marker; lane B—untreated control; lane C—ceramide-loaded plain liposomes; lane D—ceramide loaded STPP liposomes according to the invention; lane E—free ceramide. Black arrows indicate the apoptotic DNA ladder. Total amount of DNA was identical in all lanes; and
FIG. 8 represents a micrograph of DNA gel separation analysis of cells of the colon cancer cell line COLO205 incubated with C6 ceramide-loaded mitochondriotropic liposomes according to the invention for 18 hrs, followed by extraction of their DNA. The concentration of ceramide in all samples was 25 μM. Lane A—DNA marker; lane B—untreated control; lane C—ceramide-loaded plain liposomes; lane D—ceramide loaded STPP liposomes according to the invention; lane E—free ceramide. Black arrows indicate the apoptotic DNA ladder. The total amount of DNA was identical in all lanes.

Compound: CCCCCCCCCCCCC/C=C/[C@@H](O)[C@H](CO)NC(=O)CCCCC [free ceramide, C6 ceramide]
- DNA laddering typical of apoptosis: nor cells treated with free ceramide (Lane E, FIG. 8) showed the DNA laddering typical of apoptosis
